Values of other authors as cited in patent US6384246B1, “Process for the preparation of maltol from plants belonging to the genus Abies” (Council of Scientific & Industrial Research, priority 2001, dated 2002).

Conditions: in ethylene glycol at ambient temperature

In the case of `Cc1occc(=O)c1O` [maltol, 2-methyl-3-hydroxy-4-pyrone], the “solubility of maltol in ethylene glycol” value is listed as “about 4%”.
